Starred links: 1 amine or outer side, 2 acyl side, 3 side chain; linkers in the order of their positions; H or OH if unused. Positions of bridges follow the written chain, without caps; N, C: chain ends. Non-standard residues stand in square brackets, D forms with d. Residues, ends and D or L forms follow the SMILES beside them. Chains are numbered I, II in the order given. X2 = O=C(O)CNC(=O)c1cc(N[*:1])cc(N[*:2])c1; X1 = NC(=O)c1cc(N[*:1])cc(N[*:2])c1; 3Abz = Nc1cccc(C(=O)O)c1; 2Abz = Nc1ccccc1C(=O)O
Target: human platelet-rich plasma (Homo sapiens, UniProt P05106+P08514)
Test: In vitro inhibition of ADP-induced aggregation of human platelet-rich plasma (Coller assay)
Type: cell-based
Conditions: adjusted for fibrinogen concentration (ca. 30 times lower than Coller assay value; 0.1 mg/mL fibrinogen)
Experimental: 1. In vitro Inhibition of Aggregation of Human Platelet-Rich Plasma
Whole blood (10 ml) was collected from human volunteers and anticoagulated by addition of […] of 40% sodium citrate. Platelet-rich plasma (PRP) was prepared by low speed centrifugation (700 G for 3.5 min at 22° C.). The PRP was removed and the remaining blood was centrifuged at 2000 G for 10 min at 22 ° C. to obtain platelet poor plasma (PPP). The PRP was diluted with PPP to give a final platelet count of 300 000μL with a Coulter Acounter Model ZM (Coulter, Hialeah, Fla.). This diluted PRP (400μL) was placed in a siliconized glass cuvette equipped with a magnetic stirrer and stirred at 1200 rpm at 37° C. Various concentrations of the peptides (36μL) in TRIS buffer (0.01 M TRIS, 0.15 M NaCl, and 0.05% sodium azide, pH 7.4) was added and incubated for 3 rain before platelet aggregation was induced by addition of 54μL of 100μM ADP in HEPES buffer (0.01 M HEPES and 0.15 M NaCl, pH 7.5). The platelet aggregation was determined by a change in light transmission through the PRP on a Lumi Aggregometer 400rS (ChronoLog, Hayertown, PA). The ability of the peptides to inhibit platelet aggregation was evaluated and the IC50 was determined as the concentration of peptide required to produce 50% inhibition of the response to ADP in the presence of the TRIS buffer.
The assay system developed by Coller, which is used throughout the experiment, is different from conventional assay systems in certain aspects. First, the platelets used by Plow et al., Blood, 70, 110 (1987); and Garsky et al., Proc. Natl. Acad. Sci. U.S.A., 86, 4022 (1989) are gel-filtered to remove plasma proteins. Since the gel-filtration treatment may decrease the reactivity of the platelets, our assay avoids this step. The platelet count is adjusted by simply mixing PRP and PPP, which minimizes alterations of the platelets. Second, fibrinogen concentration in the Coller system is different from that of others. As shown in the experimental description of the assay, PRP was obtained from fresh blood and used immediately without further manipulation except for count adjustment. According to measurements obtained using this assay, such plasma contains ca. 3 mg of fibrinogen per 1 mL of plasma. On the other hand, fibrinogen concentration used in the Garsky and Plow assay system is 0.1 mg/mL. The concentration of fibrinogen affects the amount of RGD peptide required to inhibit platelet aggregation, with higher fibrinogen concentrations resulting in higher IC50 values. If there is a linear relationship between these two parameters, the IC50 values obtained from the Coller assay should be ca. 30 times larger than those obtained from the Plow et al. assay or the Garsky et al. assay. The adjusted IC50 values are presented in column 4 of Table showing the inhibitory activities of RGD peptides.
The following peptides were synthesized, and their amino acid contents were analyzed as described in procedures 3-7, above. In addition, their ability to inhibit aggregation of human platelet rich plasma was assessed as described in procedures 1 and 2, above. Their respective IC50 values, as well as their estimated IC50 adjusted to the values according the method of Plow et al., (vide supra) are listed in Table 1.

human platelet-rich plasma, sequence (P08514 32-1039): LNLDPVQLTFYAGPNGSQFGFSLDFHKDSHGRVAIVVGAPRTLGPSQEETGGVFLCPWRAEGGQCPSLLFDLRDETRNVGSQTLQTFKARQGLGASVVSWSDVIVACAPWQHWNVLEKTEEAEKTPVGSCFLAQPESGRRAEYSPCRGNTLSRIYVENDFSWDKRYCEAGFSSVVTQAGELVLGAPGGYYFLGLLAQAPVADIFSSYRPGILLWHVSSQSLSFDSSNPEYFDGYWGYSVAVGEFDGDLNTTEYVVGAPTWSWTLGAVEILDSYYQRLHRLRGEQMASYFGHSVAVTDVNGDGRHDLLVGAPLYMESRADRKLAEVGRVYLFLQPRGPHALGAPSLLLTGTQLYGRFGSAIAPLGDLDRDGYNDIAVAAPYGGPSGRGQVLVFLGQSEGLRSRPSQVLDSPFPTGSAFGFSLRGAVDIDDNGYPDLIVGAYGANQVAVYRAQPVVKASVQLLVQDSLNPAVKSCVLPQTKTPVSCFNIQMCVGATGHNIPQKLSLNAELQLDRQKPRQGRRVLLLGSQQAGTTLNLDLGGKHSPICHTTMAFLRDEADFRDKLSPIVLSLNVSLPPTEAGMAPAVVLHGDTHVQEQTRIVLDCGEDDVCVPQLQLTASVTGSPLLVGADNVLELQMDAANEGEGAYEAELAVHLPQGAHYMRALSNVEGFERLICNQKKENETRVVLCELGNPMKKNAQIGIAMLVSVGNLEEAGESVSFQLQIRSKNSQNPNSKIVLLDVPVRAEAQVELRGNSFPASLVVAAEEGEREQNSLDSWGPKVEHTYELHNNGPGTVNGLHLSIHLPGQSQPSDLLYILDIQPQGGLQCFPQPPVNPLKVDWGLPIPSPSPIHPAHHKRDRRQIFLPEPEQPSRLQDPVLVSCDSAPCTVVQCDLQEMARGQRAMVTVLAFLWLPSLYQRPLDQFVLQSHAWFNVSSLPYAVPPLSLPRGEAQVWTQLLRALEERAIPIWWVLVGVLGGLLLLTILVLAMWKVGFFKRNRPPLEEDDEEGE
human platelet-rich plasma, sequence (P05106 27-788): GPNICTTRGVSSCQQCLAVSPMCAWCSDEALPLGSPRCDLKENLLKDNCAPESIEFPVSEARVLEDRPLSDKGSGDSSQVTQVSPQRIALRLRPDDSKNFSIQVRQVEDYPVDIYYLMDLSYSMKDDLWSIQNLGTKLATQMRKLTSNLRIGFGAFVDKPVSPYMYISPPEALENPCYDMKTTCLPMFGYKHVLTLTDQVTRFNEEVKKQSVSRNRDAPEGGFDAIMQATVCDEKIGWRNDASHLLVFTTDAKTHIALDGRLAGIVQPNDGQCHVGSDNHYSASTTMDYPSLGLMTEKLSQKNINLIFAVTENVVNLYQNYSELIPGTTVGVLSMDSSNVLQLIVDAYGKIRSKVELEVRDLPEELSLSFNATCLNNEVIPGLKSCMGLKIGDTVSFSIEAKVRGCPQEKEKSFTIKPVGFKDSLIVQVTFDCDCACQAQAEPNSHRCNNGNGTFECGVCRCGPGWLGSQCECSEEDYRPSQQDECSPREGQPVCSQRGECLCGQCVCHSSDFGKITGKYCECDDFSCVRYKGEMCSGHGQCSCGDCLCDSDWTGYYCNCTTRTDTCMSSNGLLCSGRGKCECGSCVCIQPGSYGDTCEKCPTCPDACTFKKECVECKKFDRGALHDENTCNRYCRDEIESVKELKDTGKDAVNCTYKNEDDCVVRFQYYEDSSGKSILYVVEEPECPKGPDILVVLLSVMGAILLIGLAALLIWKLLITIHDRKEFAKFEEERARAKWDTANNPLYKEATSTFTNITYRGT

| IC50 (M)* Estimated IC50 adjusted to the values by the method of Plow et al. [M] | SMILES |
| --- | --- |
| 1.5e-06 | CC(C)[C@H](NC(=O)[C@H](CC(=O)O)NC(=O)CNC(=O)[C@H](CCCNC(=N)N)NC(=O)CN)C(=O)NCC(=O)Nc1cccc(C(=O)NCC(=O)N[C@@H](CCCNC(=N)N)C(=O)NCC(=O)N[C@@H](CC(=O)O)C(=O)N[C@@H](Cc2ccccc2)C(N)=O)c1 [Example 29, GRGDVG--(m)Abz--GRGDF--NH2] (H-GRGDVG[3Abz]GRGDF-NH2) |
| 6.7e-07 | N=C(N)NCCC[C@H](N)C(=O)NCC(=O)N[C@@H](CC(=O)O)C(=O)N[C@@H](Cc1ccccc1)C(=O)N1CCC[C@H]1C(=O)NCC(=O)Nc1cc(NC(=O)CNC(=O)[C@@H]2CCCN2C(=O)[C@H](Cc2ccccc2)NC(=O)[C@H](CC(=O)O)NC(=O)CNC(=O)[C@@H](N)CCCNC(=N)N)cc(C(=O)NCC(=O)O)c1 [Example 1, (RGDFPG)2 Dab--G--OH] (I: H-RGDFPG / II: H-RGDFPG; linker I:C-II:C via X2; N-terminus assumed) |
| 3.1e-06 | CC(C)[C@H](NC(=O)[C@H](CC(=O)O)NC(=O)CNC(=O)[C@H](CCCNC(=N)N)NC(=O)CN)C(=O)NCC(=O)Nc1ccccc1C(=O)NCC(=O)N[C@@H](CCCNC(=N)N)C(=O)NCC(=O)N[C@@H](CC(=O)O)C(=O)N[C@@H](Cc1ccccc1)C(N)=O [Example 28, GRGDVG--(o)Abz--GRGDF--NH2] (H-GRGDVG[2Abz]GRGDF-NH2) |
| 4.4e-06 | N=C(N)NCCC[C@H](NC(=O)CN)C(=O)NCC(=O)N[C@@H](CC(=O)O)C(=O)N[C@@H](Cc1ccccc1)C(=O)NCCC[C@H](NC(=O)[C@H](Cc1ccccc1)NC(=O)[C@H](CC(=O)O)NC(=O)CNC(=O)[C@H](CCCNC(=N)N)NC(=O)CN)C(N)=O [Example 5, (GRGDF)2 Orn--NH2] |
| 4.2e-07 | N=C(N)NCCC[C@H](N)C(=O)NCC(=O)N[C@@H](CC(=O)O)C(=O)N[C@@H](Cc1ccccc1)C(=O)N1CCC[C@H]1C(=O)NCC(=O)Nc1cc(NC(=O)CNC(=O)[C@@H]2CCCN2C(=O)[C@H](Cc2ccccc2)NC(=O)[C@H](CC(=O)O)NC(=O)CNC(=O)[C@@H](N)CCCNC(=N)N)cc(C(N)=O)c1 [Example 2, (RGDFPG)2 Dab--NH2] (I: H-RGDFPG / II: H-RGDFPG; linker I:C-II:C via X1; N-terminus assumed) |
| 3.1e-06 | N=C(N)NCCC[C@H](NC(=O)CN)C(=O)NCC(=O)N[C@@H](CC(=O)O)C(=O)N[C@@H](Cc1ccccc1)C(=O)NCC(=O)Nc1ccccc1C(=O)NCC(=O)N[C@@H](CCCNC(=N)N)C(=O)NCC(=O)N[C@@H](CC(=O)O)C(=O)N[C@@H](Cc1ccccc1)C(N)=O [Example 22, GRGDFG-(o)Abz--GRGDF--NH2] (H-GRGDFG[2Abz]GRGDF-NH2) |
| 7.6e-08 | CCCCCC(=O)N[C@@H](CCCNC(=N)N)C(=O)NCC(=O)N[C@@H](CC(=O)O)C(=O)N[C@@H](Cc1ccccc1)C(=O)NCCCC[C@H](NC(=O)[C@H](Cc1ccccc1)NC(=O)[C@H](CC(=O)O)NC(=O)CNC(=O)[C@H](CCCNC(=N)N)NC(=O)CCCCC)C(N)=O [Example 8, (HexRGDF)2 Lys--NH2] |
| 1.7e-06 | N=C(N)NCCC[C@H](NC(=O)CN)C(=O)NCC(=O)N[C@@H](CC(=O)O)C(=O)N[C@@H](Cc1ccccc1)C(=O)NCCCC[C@H](NC(=O)[C@H](Cc1ccccc1)NC(=O)[C@H](CC(=O)O)NC(=O)CNC(=O)[C@H](CCCNC(=N)N)NC(=O)CN)C(=O)NCC(=O)N[C@@H](CCCNC(=N)N)C(=O)NCC(=O)N[C@@H](CC(=O)O)C(=O)N[C@@H](Cc1ccccc1)C(N)=O [Example 17, (GRGDF)2 Lys--GRGDF--NH2] |
| 7.2e-07 | N=C(N)NCCC[C@H](NC(=O)C1CC(NC(=O)[C@H](Cc2ccccc2)NC(=O)[C@H](CC(=O)O)NC(=O)CNC(=O)[C@@H](N)CCCNC(=N)N)CC(NC(=O)[C@H](Cc2ccccc2)NC(=O)[C@H](CC(=O)O)NC(=O)CNC(=O)[C@@H](N)CCCNC(=N)N)C1)C(=O)NCC(=O)N[C@@H](CC(=O)O)C(=O)N[C@@H](Cc1ccccc1)C(=O)O (stereo partly shown) [Example 16, (RGDF)2 Dac--RGDF--OH] |

| SMILES | IC50 (M)* Estimated IC50 adjusted to the values by the method of Plow et al. [M] |
| --- | --- |
| N=C(N)NCCC[C@H](NC(=O)c1ccccc1)C(=O)NCC(=O)N[C@@H](CC(=O)O)C(=O)N[C@@H](Cc1ccccc1)C(=O)NCCCC[C@H](NC(=O)[C@H](Cc1ccccc1)NC(=O)[C@H](CC(=O)O)NC(=O)CNC(=O)[C@H](CCCNC(=N)N)NC(=O)c1ccccc1)C(N)=O [Example 7, (BzRGDF)2 Lys--NH2] | 2.9e-07 |
